Key:
Assay type in all cases: physicochemical
[1] = Durability in solvent cast PVC films, Atlas C165 Weather-Ometer (Example 83); details: PVC film; for % Loss / Absorbance (max) Loss units: 1100 hrs
Procedure: (§1) The durability of representative benzotriazoles in thermoplastic substrates is determined by incorporating various test compounds into solvent cast films of poly(vinyl chloride), polycarbonate and polystyrene resins. The free standing films are mounted into cardboard holders, secured in metal frames and exposed in an Atlas C165 Xenon-arc Weather-Ometer under dry conditions according to ASTM G26 for 1100 and 2200 hour exposure. Loss of UV absorber is determined by monitoring the loss of diagnostic UV absorption as described earlier. Performance is measured by a change in color or the physical integrity of the film.
PVC films of GEON® 27 (Geon Co.) are solvent cast as described above with warm tetrahydrofuran (THF) and exposed in an Atlas C165 Weather-Ometer as described in Example 60 for 1100 hours.

[2] = Durability in solvent cast polycarbonate film, Atlas C165 Xenon-arc, ASTM G26 (Example 80); details: for % Loss / Absorbance (max) Loss units: 1100 hrs
Procedure: as §1
Polycarbonate flake (LEXAN® 145, General Electric) is dissolved in methylene chloride at room temperature along with between 1 and 3% by weight of test benzotriazole, based on the polycarbonate. Films are cast using a calibrated drawdown bar to prepare 1 mil thick film after drying.

[3] = UV absorption data (Example 74); parameters: ε @ λ max: unit not given beside the values
[4] = UV absorption data (Example 74); details: 20 mg/l concentrations; not the molar extinction values
Procedure: In the following examples the absorbance at 375 nm is reported for 20 mg/l concentrations. This is not the molar extinction values.

[5] = Yellowness color of solutions in butyl acetate, Macbeth Color-Eye (Example 75); details: 30 mg/100 mL in butyl acetate; for DE: corresponding Yellowness Index value; for b: yellowness, Macbeth Color-Eye
Procedure: The following examples show the difference in color between some of the instant compounds as measured by a Macbeth Color-Eye instrument at a concentration of 30 mg/100 mL in butyl acetate. […] In the table, the compounds are listed by increasing b value. The instrument measures yellowness as b and DE is the corresponding Yellowness Index value.

[6] = Loss of UV absorber from high solids thermoset acrylic clear coat, Xenon Arc Weather-Ometer (Example 77); details: after 1211 hours Xenon arc exposure; clear coat with 1% hindered amine; UV absorber at 5 mmol % by weight
Procedure: To ascertain the effect on thermal durability and loss rate from a high solids thermoset acrylic coating of various 2H-benzotriazole UV absorbers substituted by a variety of electron withdrawing and electron donating groups, the following tests are carried out.
A high solids thermoset acrylic clear coat is prepared by mixing an experimental acrylic polyol resin and hexamethoxymethylmelamine (Resimene® 747, Monsanto) at a solids ratio of 60/40. The dodecylbenzene sulfonic acid catalyst (Nacure® 5225; King Industries) is added at 0.70% by weight. A flow aid Modaflow® (Monsanto) is added at 0.25% by weight to form a model acrylic melamine resin system.
The model clear coat is reduced with xylene to a viscosity of 26-27 second using a Zahn #2 cup and applied via a conventional air spray at 50 psi (3.5 Kg/cm^2) over a 1″×3″ (2.54 cm×7.62 cm) quartz slide. Cure is achieved by baking the slide for 30 minutes at 260° F. (127° C.). The clear coat is stabilized with 1% by weight of a hindered amine light stabilizer, bis-(1-octyloxy-2,2,6,6-tetramethylpiperidin-4-yl)sebacate, (TINUVIN® 123, Ciba-Geigy). The various test benzotriazole UV absorbers are incorporated at the 5 mmol % by weight in the clear coat. The film thickness on the quartz slides range from 1.15 to 1.41 mils (0.029 to 0.036 mm).
The films on the quartz slides are weathered according to the following conditions in Xenon Arc Weather-Ometer with a controlled irradiance at 6500 W, using inner quartz and outer borosilicate S-type filter. The irradiation cycle is as follows: 40 minutes of straight irradiation with no water spray, followed by 20 minutes of light plus front spray, followed by 60 minutes of light irradiation and finally by 60 minutes dart plus rear spray (condensation). The setting is at 0.55 W/M^2 at 340 nm, 1.98 kJ/hour. In the light cycle the black panel temperature is controlled at 70±2° C. The relative humidity in the light cycle is in the range of 50-55% and in the dark cycle 100%. The absorbance of the long wavelength UV band as a function of Xenon arc weathering hours are recorded in the table below.
To follow the loss of UV absorbers from the clear coats, UV spectra are measured initially and after weathering at regular time intervals. The UV spectrophotometer measures absorbance linearly up to 5.5 absorbance units using a reference beam attenuation technique.
This is tested by following the ratio of absorbance of the band at about 300 nm and the band at about 340 nm.
The data in the table below are based on formula A after 1211 hours of exposure of the clear coats containing the test benzotriazole UV absorbers.

[7] = Loss of UV absorber from high solids thermoset acrylic melamine clear coat, Xenon-Arc X180 cycle (Example 78); details: for durability (low loss rate absorbance values after exposure): in words, summary of the tables of Example 78
Description: Following the general procedure of Example 77, a number of additional benzotriazole test compounds are incorporated into a high solids thermoset acrylic melamine resin at such concentrations between 1.93 and 3% by weight to give equal molar concentrations of test benzotriazole in equal film thickness, and sufficient to give a starting absorbance of approximately 2.0 absorbance units.
The test discs are exposed in a Xenon-Arc Weather-Ometer at X180 cycle (0.45 Watts/M^2). The initial UV absorbance is measured followed by measurements at roughly 250 hour intervals for the first 2000 hours and every 500 hours thereafter. Each clear coat also contains 1% by weight of a hindered amine light stabilizer, bis-(1-octyloxy-2,2,6,6-tetramethylpiperidin-4-yl) sebacate, as well.

[8] = after 1253 hours of exposure, starting absorbance approximately 2.0, 1% hindered amine

Compound: CCCCCCCCCS(=O)(=O)c1ccc2nn(-c3cc(C(C)(C)CC(C)(C)C)cc(C(C)(C)c4ccccc4)c3O)nc2c1 [AA, 5-nonylsulfonyl-2-(2-hydroxy-3-α-cumyl-5-tert-octylphenyl)-2H-benzotriazole]
- Absorbance (max) 1100 hrs ([1]; 2.5 wt %): 1.103
- % Loss ([1]; 2.5 wt %): 3.1%
- Absorbance (max) Loss units ([1]; 2.5 wt %): 0.036
- Absorbance (max) 0 hrs ([1]; 2.5 wt %, AA at 368 nm): 1.149
- Absorbance (max) 1100 hrs ([2]; 2.5 wt %): 1.300
- % Loss ([2]; 2.5 wt %): 2.5%
- Absorbance (max) Loss units ([2]; 2.5 wt %): 0.033
- Absorbance (max) 0 hrs ([2]; 2.5 wt %, AA at 364 nm): 1.333

Compound: CCCCS(=O)(=O)c1ccc2nn(-c3cc(C(C)(C)CC(C)(C)C)cc(C(C)(C)c4ccccc4)c3O)nc2c1 [CC, 5-butylsulfonyl-2-(2-hydroxy-3-α-cumyl-5-tert-octylphenyl)-2H-benzotriazole]
- ε @ λ max [3]: 14,100
- λ max nm [3]: 359 nm
- Absorbance @ 375 nm [4]: 0.42
- DE [5]: 3.35
- b [5]: 2.84

Compound: CC(C)(C)CC(C)(C)c1ccc(O)c(-n2nc3ccccc3n2)c1 [Compound A, 2-(2-hydroxy-5-tert-octylphenyl)-2H-benzotriazole]
- Units Absorbance Loss [6]: 1.7982

Compound: CC(C)(C)CC(C)(C)c1cc(Cc2cc(C(C)(C)CC(C)(C)C)cc(-n3nc4ccccc4n3)c2O)c(O)c(-n2nc3ccccc3n2)c1 [Compound B, 2,2′-Methylene-bis[6-(2H-benzotriazol-2-yl)-4-tert-octylphenol]]
- Units Absorbance Loss [6]: 1.6300

Compound: CC(C)(C)c1cc(CCCO)cc(-n2nc3ccccc3n2)c1O [Compound L]
- Units Absorbance Loss [6]: 0.3712

Compound: CC(C)(c1ccccc1)c1cc(-n2nc3ccccc3n2)c(O)c(C(C)(C)c2ccccc2)c1 [Compound P, 2-(2-hydroxy-3,5-di-α-cumylphenyl)-2H-benzotriazole]
- Units Absorbance Loss [6]: 0.2576
- Absorbance (max) 1100 hrs ([1]; 1.5 wt %): 1.022
- % Loss ([1]; 1.5 wt %): 10.7%
- Absorbance (max) Loss units ([1]; 1.5 wt %): 0.123
- Absorbance (max) 0 hrs ([1]; 1.5 wt %, P at 347 nm): 1.145
- Absorbance (max) 1100 hrs ([1]; 2.5 wt %): 2.081
- % Loss ([1]; 2.5 wt %): 5.6%
- Absorbance (max) Loss units ([1]; 2.5 wt %): 0.130
- Absorbance (max) 0 hrs ([1]; 2.5 wt %, AA at 368 nm): 2.211
- Absorbance (max) 1100 hrs ([2]; 1.5 wt %): 0.919
- % Loss ([2]; 1.5 wt %): 13.5%
- Absorbance (max) Loss units ([2]; 1.5 wt %): 0.143
- Absorbance (max) 0 hrs ([2]; 1.5 wt %, P at 347 nm): 1.062
- Absorbance (max) 1100 hrs ([2]; 2.5 wt %): 1.844
- % Loss ([2]; 2.5 wt %): 12.3%
- Absorbance (max) Loss units ([2]; 2.5 wt %): 0.260
- Absorbance (max) 0 hrs ([2]; 2.5 wt %, AA at 364 nm): 2.104

Compound: CC(C)(C)CC(C)(C)c1cc(-n2nc3ccc(S(=O)(=O)c4ccccc4)cc3n2)c(O)c(C(C)(C)c2ccccc2)c1 [Compound U, 5-phenylsulfonyl-2-(2-hydroxy-3-α-cumyl-5-tert-octylphenyl)-2H-benzotriazole]
- ε @ λ max [3]: 17,300
- λ max nm [3]: 362 nm
- Absorbance @ 375 nm [4]: 0.50
- Units Absorbance Loss ([7]; after 1264 hours of exposure): 0.0944
- Units Absorbance Loss ([7]; after 1518 hours of exposure): 0.1114
- durability (low loss rate absorbance values after exposure) [7]: especially durable
- DE [5]: 4.42
- b [5]: 3.75

Compound: COC(=O)c1ccc2nn(-c3cc(C(C)(C)CC(C)(C)C)cc(C(C)(C)c4ccccc4)c3O)nc2c1 [DD, 5-carbomethoxy-2-(2-hydroxy-3-α-cumyl-5-tert-octylphenyl)-2H-benzotriazole]
- ε @ λ max [3]: 15,700
- λ max nm [3]: 358 nm
- Absorbance @ 375 nm [4]: 0.42
- DE [5]: 2.25
- b [5]: 1.85

Compound: COC(=O)CCc1ccc(O)c(-n2nc3ccccc3n2)c1 [D]
- Units Absorbance Loss [6]: 1.4002

Compound: COc1ccc2nn(-c3cc(C)cc(C(C)(C)C)c3O)nc2c1 [E]
- Units Absorbance Loss [6]: 1.1872

Compound: CC(C)CCCCCOC(=O)CCc1cc(-n2nc3ccc(C(F)(F)F)cc3n2)c(O)c(C(C)(C)C)c1 [FF, isooctyl 3-(5-trifluoromethyl-2H-benzotriazol-2-yl)-5-tert-butyl-4-hydroxyhydro-cinnamate]
- DE [5]: 0.72
- b [5]: 0.54

Compound: COC(=O)CCc1cc(-n2nc3ccccc3n2)c(O)c(C(C)(C)C)c1 [F]
- Units Absorbance Loss [6]: 0.5259

Compound: CC(C)(c1ccccc1)c1ccc(O)c(-n2nc3ccccc3n2)c1 [G]
- Units Absorbance Loss [6]: 0.4527

Compound: CC(C)(C)CC(C)(C)c1cc(C(C)(C)c2ccccc2)cc(-n2nc3ccccc3n2)c1O [I]
- Units Absorbance Loss [6]: 0.4299

Compound: CC(C)(C)CC(C)(C)c1cc(-n2nc3ccccc3n2)c(O)c(C(C)(C)CC(C)(C)C)c1 [K]
- Units Absorbance Loss [6]: 0.3777

Compound: COC(=O)CCc1cc(-n2nc3ccccc3n2)c(O)c(C(C)(C)c2ccccc2)c1 [M]
- Units Absorbance Loss [6]: 0.3433

Compound: CC(C)(C)c1cc(-n2nc3ccc(C#N)cc3n2)c(O)c(C(C)(C)C)c1 [N]
- Units Absorbance Loss [6]: 0.3098

Compound: CC(C)(c1ccccc1)c1cc(-c2ccccc2)c(O)c(-n2nc3ccccc3n2)c1 [R]
- Units Absorbance Loss [7, 8]: 0.2424
- Units Absorbance Loss ([7]; after 1489 hours of exposure): 0.3724
- Units Absorbance Loss ([7]; after 2521 hours of exposure): 0.4824

Compound: CC(C)(C)c1cc(-n2nc3ccc(S(=O)(=O)c4ccccc4)cc3n2)c(O)c(C(C)(C)C)c1 [T]
- Units Absorbance Loss [7, 8]: 0.1827
- Units Absorbance Loss ([7]; after 1264 hours of exposure): 0.1965
- Units Absorbance Loss ([7]; after 1489 hours of exposure): 0.2654
- Units Absorbance Loss ([7]; after 1518 hours of exposure): 0.2423
- Units Absorbance Loss ([7]; after 2521 hours of exposure): 0.3570
- durability (low loss rate absorbance values after exposure) [7]: significantly more durable

Compound: CC(C)(C)CC(C)(C)c1cc(-n2nc3ccc(Cl)cc3n2)c(O)c(C(C)(C)c2ccccc2)c1 [V, 5-Chloro-2-(2-hydroxy-3-α-cumyl-5-tert-octylphenyl)-2H-benzotriazole]
- Units Absorbance Loss ([7]; after 1264 hours of exposure): 0.1719
- Units Absorbance Loss ([7]; after 1518 hours of exposure): 0.1955
- durability (low loss rate absorbance values after exposure) [7]: especially durable

Compound: CC(C)(C)CC(C)(C)c1cc(-n2nc3ccc(F)cc3n2)c(O)c(C(C)(C)c2ccccc2)c1 [W, 5-Fluoro-2-(2-hydroxy-3-α-cumyl-5-tert-octylphenyl)-2H-benzotriazole]
- Units Absorbance Loss ([7]; after 1264 hours of exposure): 0.1655
- Units Absorbance Loss ([7]; after 1518 hours of exposure): 0.1668
- durability (low loss rate absorbance values after exposure) [7]: especially durable

Compound: CC(C)(C)CC(C)(C)c1cc(-c2ccccc2)c(O)c(-n2nc3ccccc3n2)c1 [X]
- Units Absorbance Loss ([7]; after 1264 hours of exposure): 0.1796
- Units Absorbance Loss ([7]; after 1518 hours of exposure): 0.2220
